{"source": "patent US20090227619A1", "about": "“Harmine derivatives, intermediates used in their preparations, preparation processes and use therefo” (priority 2003, published 2009)", "key": {"S180 sarcoma": {"test_system": "S180 sarcoma", "conditions": "S180 sarcoma; for Body weight of the animals, beginning, First time / Body weight of the animals, end, First time / Inhibition rate, First time / Weight of the tumor X ± SD, First time / Body weight of the animals, beginning, Second time / Body weight of the animals, end, Second time / Inhibition rate, Second time: ip × 10qd"}, "HepG2": {"test_system": "HepG2", "assay": "In vitro cytotoxicity, IC50 by MTT method, HepG2", "format": "cell-based, human", "protocol": "(§1) Culture medium powder RPMI1640 was dissolved in a proper amount of tri-distilled water according to the instruction of the product. […] It was the basic culture solution. The complete culture solution was added with FBS having a final concentration of 10%, 100 U/ml penicillin and 100 µg/ml streptomycin. The solution was fully stirred by a magnetic blender, and the pH of the solution was adjusted to 6.8-7.0. The volume was kept constant. After being filtered and disinfected, the solution was kept into several containers which were sealed and stored at 4° C.\n(§2) The cells were placed in a culture dish followed by the addition of complete culture liquid RPMI1640 and then cultured in a incubator comprising 5% CO2 at 37° C. In the exponential growth phase, the cells grew vigorously. If the culture liquid became yellow, the liquid should be replaced instantly.\n(§3) The cells, at a concentration of 10^5/ml, were inoculated at a 96-pore culture plate. In each pore, 100 μl cells were inoculated. The cells were placed in a CO2 incubator until the cells were in the logarithmic growth phase. The samples to be tested were added according to the preset concentration gradient. For each gradient, the test was conducted at least three times. An equivalent amount of solvent for dissolving the samples was added in the control group. After 48 h of culture, each pore was added 20 μl MTT (5 mg/ml). The cells were cultured at 37° C. for 4 h. After the supernatant was carefully removed, 100 μl DMSO was added in each pore. The plate was agitated for about 10 minutes such that the precipitates were dissolved. After that, OD value was identified with a Microplate Reader at the wavelength of 490 nm. The survival rate of the cells at various concentrations was calculated according to the following formula:\n(§4) Survival rate %=average OD value of the sample group/average OD value of the control group×100%\n(§5) Plots of log survival rate of the cells vs. concentration of the medicament were constructed, and the IC50 value of each sample was calculated according to graphing methods."}, "Hela": {"test_system": "Hela", "assay": "In vitro cytotoxicity, IC50 by MTT method, Hela", "format": "cell-based", "protocol": "as §1, §2, §3, §4, §5"}, "BGC-823": {"test_system": "BGC-823", "assay": "In vitro cytotoxicity, IC50 by MTT method, BGC-823", "format": "cell-based", "protocol": "as §1, §2, §3, §4, §5"}, "Lovo": {"test_system": "Lovo", "assay": "In vitro cytotoxicity, IC50 by MTT method, Lovo", "format": "cell-based", "protocol": "as §1, §2, §3, §4, §5"}, "PLA-801": {"test_system": "PLA-801", "assay": "In vitro cytotoxicity, IC50 by MTT method, PLA-801", "format": "cell-based", "protocol": "as §1, §2, §3, §4, §5"}, "NIH3T3": {"test_system": "NIH3T3", "assay": "In vitro cytotoxicity, IC50 by MTT method, NIH3T3", "format": "cell-based", "protocol": "as §1, §2, §3, §4, §5"}, "Lewis lung cancer": {"test_system": "Lewis lung cancer", "conditions": "Lewis lung cancer; for Body weight of the animals, end, First time / Body weight of the animals, end, Second time: ip × 10qd", "from_the_text": "There was one group of 8 to 10 mice C57BL/6 and Kunming mice for the anti-tumor tests and two groups of mice for negative control.\n(3) Sources of tumors: Lewis lung cancer cells and S180 sarcoma in mice, which were sub-cultured and maintained by Pharmacological Center of Shanghai Pharmaceutical Industrial Research Institute.\nAll samples were weighed and added a small amount of Tween-80 to facilitate dissolution during the experiment, and then 0.5% CMC-Na solution was gradually added to achieve the desired concentration. The volume for experiment was 0.5 ml/20 g mouse.\nThe medicaments were intraperitoneally administered once a day continuously for 10 days.\nFor the negative control group, a vehicle of the same volume was intraperitoneally administered once a day continuously for 10 days. For the positive control group, CTX was administered in the dosage of 30 mg/kg once a day continuously for 7 days.\nIn vivo anti-tumor subcutaneous vaccination in the axilla was employed. Wildly grown tumor source was taken under sterile conditions to form a cell suspension of about 1×10^7 ml by homogenization method. For a corresponding mouse host, the suspension was injected in the axilla in an amount of 0.2 ml/mouse. The next day, the medicaments were administered according to the design of the tests. About three weeks later, all the groups of animals were executed. The tumors were taken from the animals and weighed. The inhibition rate of tumors was calculated according to the following formula:\nT: average tumor weight of treated group; C: average tumor weight of negative control group."}, "Bel-7402": {"test_system": "Bel-7402", "assay": "In vitro cytotoxicity, IC50 by MTT method, Bel-7402", "format": "cell-based", "protocol": "as §1, §2, §3, §4, §5"}, "[1]": {"conditions": "Homo sapiens, HepG2, MTT, read-out: IC50"}, "[2]": {"conditions": "Homo sapiens, Hela, MTT, read-out: IC50"}, "[3]": {"conditions": "Homo sapiens, BGC-823, BGC823, MTT, read-out: IC50"}, "[4]": {"conditions": "Homo sapiens, Lovo, MTT, read-out: IC50"}, "[5]": {"conditions": "Mus musculus, NIH3T3, MTT, read-out: IC50"}, "[6]": {"conditions": "Homo sapiens, Bel-7402, BeI7402, MTT, read-out: IC50"}}, "note": "Read-outs that look alike come from different tables or passages of the source.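 Wherever Inhibition rate (%) Lewis cancer is given: mice implanted subcutaneously in the axilla with Lewis lung tumor cells, treated starting the following day, killed roughly three weeks after implantation.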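 Wherever LD50 is given: acute toxicity in Kunming mice grouped by sex, one intraperitoneal dose at five graded levels in Tween-80 plus 0.5% CMC-Na, deaths monitored over two weeks.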", "data": [{"molecule": "2,9-dibenzyl-3-ethoxycarbonyl-β-carbolinium bromate [Compound 86]", "values": [{"measurement": "Body weight of the animals, beginning, First time", "setting": "S180 sarcoma; Dosage 10 (mg/ml)", "result": 19.3, "unit": "g"}, {"measurement": "Body weight of the animals, end, First time", "setting": "S180 sarcoma; Dosage 10 (mg/ml)", "result": 24.5, "unit": "g"}, {"measurement": "Inhibition rate, First time", "setting": "S180 sarcoma; Dosage 10 (mg/ml)", "result": 31.09, "unit": "%"}, {"measurement": "Weight of the tumor X ± SD, First time", "setting": "S180 sarcoma; Dosage 10 (mg/ml)", "result": "1.84 ± 0.16", "unit": "g"}, {"measurement": "Body weight of the animals, beginning, Second time", "setting": "S180 sarcoma; Dosage 10 (mg/ml)", "result": 18.7, "unit": "g"}, {"measurement": "Body weight of the animals, end, Second time", "setting": "S180 sarcoma; Dosage 10 (mg/ml)", "result": 24.9, "unit": "g"}, {"measurement": "Inhibition rate, Second time", "setting": "S180 sarcoma; Dosage 10 (mg/ml)", "result": 28.89, "unit": "%"}, {"measurement": "Weight of the tumor X ± SD, Second time", "setting": "S180 sarcoma; Dosage 10, ip × 10qd", "result": "1.92 ± 0.20", "unit": "g"}, {"measurement": "Body weight of the animals, beginning, First time", "setting": "S180 sarcoma; Dosage 20 (mg/ml)", "result": 19.0, "unit": "g"}, {"measurement": "Body weight of the animals, end, First time", "setting": "S180 sarcoma; Dosage 20 (mg/ml)", "result": 23.7, "unit": "g"}, {"measurement": "Inhibition rate, First time", "setting": "S180 sarcoma; Dosage 20 (mg/ml)", "result": 38.95, "unit": "%"}, {"measurement": "Weight of the tumor X ± SD, First time", "setting": "S180 sarcoma; Dosage 20 (mg/ml)", "result": "1.63 ± 0.26", "unit": "g"}, {"measurement": "Body weight of the animals, beginning, Second time", "setting": "S180 sarcoma; Dosage 20 (mg/ml)", "result": 18.9, "unit": "g"}, {"measurement": "Body weight of the animals, end, Second time", "setting": "S180 sarcoma; Dosage 20 (mg/ml)", "result": 24.4, "unit": "g"}, {"measurement": "Inhibition rate, Second time", "setting": "S180 sarcoma; Dosage 20 (mg/ml)", "result": 41.11, "unit": "%"}, {"measurement": "Weight of the tumor X ± SD, Second time", "setting": "S180 sarcoma; Dosage 20, ip × 10qd", "result": "1.59 ± 0.17", "unit": "g"}, {"measurement": "Inhibition rate (%) S180 sarcomata", "setting": "S180 sarcoma; comparison table 43, in vivo", "result": 41.11, "unit": "%"}, {"measurement": "IC50", "setting": "HepG2; HepG2 cell strain, read-out: IC50 HepG2", "result": 0.04, "unit": "mM"}, {"measurement": "IC50", "setting": "Hela; Hela cell strain, read-out: IC50 Hela", "result": 0.03, "unit": "mM"}, {"measurement": "IC50", "setting": "BGC-823; BGC823 cell strain, read-out: IC50 BGC823", "result": 0.04, "unit": "mM"}, {"measurement": "IC50", "setting": "Lovo; Lovo cell strain, read-out: IC50 Lovo", "result": 20, "unit": "µM"}, {"measurement": "IC50", "setting": "PLA-801; PLA-801 cell strain, read-out: IC50 PLA-801", "result": 10, "unit": "µM"}, {"measurement": "IC50", "setting": "NIH3T3; NIH3T3 cell strain, read-out: IC50 NIH3T3", "result": 20, "unit": "µM"}, {"measurement": "Body weight of the animals, end, First time", "setting": "Lewis lung cancer; Dosage 10 (mg/ml)", "result": 24.5, "unit": "g"}, {"measurement": "Body weight of the animals, end, Second time", "setting": "Lewis lung cancer; Dosage 10 (mg/ml)", "result": 25.1, "unit": "g"}, {"measurement": "Body weight of the animals, beginning, First time", "setting": "Lewis lung cancer; Dosage 10, ip × 10qd", "result": 20.2, "unit": "g"}, {"measurement": "Inhibition rate, First time", "setting": "Lewis lung cancer; Dosage 10, ip × 10qd", "result": 34.98, "unit": "%"}, {"measurement": "Weight of the tumor X ± SD, First time", "setting": "Lewis lung cancer; Dosage 10, ip × 10qd", "result": "1.58 ± 0.11", "unit": "g"}, {"measurement": "Body weight of the animals, beginning, Second time", "setting": "Lewis lung cancer; Dosage 10, ip × 10qd", "result": 19.1, "unit": "g"}, {"measurement": "Inhibition rate, Second time", "setting": "Lewis lung cancer; Dosage 10, ip × 10qd", "result": 37.20, "unit": "%"}, {"measurement": "Weight of the tumor X ± SD, Second time", "setting": "Lewis lung cancer; Dosage 10, ip × 10qd", "result": "1.84 ± 0.17", "unit": "g"}, {"measurement": "Body weight of the animals, end, First time", "setting": "Lewis lung cancer; Dosage 20 (mg/ml)", "result": 25.2, "unit": "g"}, {"measurement": "Body weight of the animals, end, Second time", "setting": "Lewis lung cancer; Dosage 20 (mg/ml)", "result": 23.9, "unit": "g"}, {"measurement": "Body weight of the animals, beginning, First time", "setting": "Lewis lung cancer; Dosage 20, ip × 10qd", "result": 20.0, "unit": "g"}, {"measurement": "Inhibition rate, First time", "setting": "Lewis lung cancer; Dosage 20, ip × 10qd", "result": 41.56, "unit": "%"}, {"measurement": "Weight of the tumor X ± SD, First time", "setting": "Lewis lung cancer; Dosage 20, ip × 10qd", "result": "1.42 ± 0.11", "unit": "g"}, {"measurement": "Body weight of the animals, beginning, Second time", "setting": "Lewis lung cancer; Dosage 20, ip × 10qd", "result": 18.7, "unit": "g"}, {"measurement": "Inhibition rate, Second time", "setting": "Lewis lung cancer; Dosage 20, ip × 10qd", "result": 45.05, "unit": "%"}, {"measurement": "Weight of the tumor X ± SD, Second time", "setting": "Lewis lung cancer; Dosage 20, ip × 10qd", "result": "1.61 ± 0.17", "unit": "g"}, {"measurement": "Inhibition rate (%) Lewis cancer", "setting": "Lewis lung cancer; comparison table 43, in vivo", "result": 41.56, "unit": "%"}, {"measurement": "IC50", "setting": "Bel-7402; Bel7402 cell strain, read-out: IC50 Bel7402", "result": 0.05, "unit": "mM"}, {"measurement": "LD50", "setting": "Kunming mice; 50% male 50% female mice, single i.p.", "result": 65.7, "unit": "mg/kg"}, {"measurement": "LD50", "setting": "Kunming mice; mouse, in vivo, ip", "result": "58.2 to 74.1", "unit": "mg/kg"}, {"measurement": "LD50", "setting": "Kunming mice; summary Table 34, present tests, mice i.p.", "result": 65.7}]}, {"molecule": "CCOC(=O)c1cc2c([nH]c3ccccc32)c(CC)n1", "note": "[Compound 12, ethyl 1-ethyl-β-carboline-3-carboxylate]", "values": [{"measurement": "IC50", "setting": "HepG2; [1]", "result": "> 3", "unit": "mM"}, {"measurement": "IC50", "setting": "Hela; [2]", "result": "> 3", "unit": "mM"}, {"measurement": "IC50", "setting": "BGC-823; [3]", "result": "> 3", "unit": "mM"}, {"measurement": "IC50", "setting": "Lovo; [4]", "result": 1570, "unit": "µM"}, {"measurement": "IC50", "setting": "PLA-801; PLA-801, MTT, read-out: IC50", "result": "> 3000", "unit": "µM"}, {"measurement": "IC50", "setting": "NIH3T3; [5]", "result": "> 3000", "unit": "µM"}, {"measurement": "IC50", "setting": "Bel-7402; [6]", "result": "> 3", "unit": "mM"}, {"measurement": "melting point", "result": "209 to 210", "unit": "°C"}]}, {"molecule": "CCCc1nc(C(=O)OCC)cc2c1[nH]c1ccccc12", "note": "[Compound 13, ethyl 1-propyl-β-carboline-3-carboxylate]", "values": [{"measurement": "IC50", "setting": "HepG2; [1]", "result": 1.06, "unit": "mM"}, {"measurement": "IC50", "setting": "Hela; [2]", "result": "> 3", "unit": "mM"}, {"measurement": "IC50", "setting": "BGC-823; [3]", "result": "> 3", "unit": "mM"}, {"measurement": "IC50", "setting": "Lovo; [4]", "result": 740, "unit": "µM"}, {"measurement": "IC50", "setting": "PLA-801; PLA-801, MTT, read-out: IC50", "result": 670, "unit": "µM"}, {"measurement": "IC50", "setting": "NIH3T3; [5]", "result": 750, "unit": "µM"}, {"measurement": "IC50", "setting": "Bel-7402; [6]", "result": "> 3", "unit": "mM"}, {"measurement": "melting point", "result": "194 to 195", "unit": "°C"}]}]}
